This assay deals with heparinized bovine blood. Put plainly: In-vitro clot weight on drug coated PET fabric disks in heparinized bovine blood. The settings on record: PVDF-HFP/drug 90/10 dip coated PET disks, 37° C., ACT about 190, FIG. 18. As to the method:
A solution of PVDF-HFP and DOAC (direct oral anticoagulant) was prepared in 80/20 acetone/DMSO (wt/wt). The PVDF-HFP drug ratio was 90/10 (wt/wt) and the solution solids was 0.7%. […] diameter WM PET fabric disks were dip coated into the polymer/drug solution at a dip speed of […]. The coated disks were dried for […] at 125° C. in a convection oven. The drug coated disks and PVDF-HFP only control disks were placed in cups containing heparinized bovine blood adjusted to an ACT of about 190 using protamine. The cups were placed on an orbital shaker incubator at 37° C. and disks were removed at various time points and imaged. The disks were then dried and weighed to determine clot wt.

In the case of `COc1ccc(-n2nc(C(N)=O)c3c2C(=O)N(c2ccc(N4CCCCC4=O)cc2)CC3)cc1` [Apixaban], the “thrombus (clot weight) compared to the PVDF-HFP coated control” value is “significantly less thrombus”.
Consider `O=C(NC[C@H]1CN(c2ccc(N3CCOCC3=O)cc2)C(=O)O1)c1ccc(Cl)s1` [Rivaroxaban, 5-Chloro-N-({(5S)-2-oxo-3-[4-(3-oxo-4-morpholinyl)phenyl]-1,3-oxazolidin-5-yl}methyl)-2-thiophenecarboxamide], for which the “thrombus (clot weight) compared to the PVDF-HFP coated control” value is “significantly less thrombus”.

(Values after US20250090174A1, “LEFT ATRIAL APPENDAGE CLOSURE DEVICE WITH DRUG-ELUTING COMPOSITION” (BOSTON SCIENTIFIC SCIMED, INC., priority 2023, published 2025).)
